Results taken from patent publication US9988429B2, “Glucagon analogues” (Zealand Pharma A/S, priority 2013, dated 2018).
Starred links: 1 amine or outer side, 2 acyl side, 3 side chain; linkers in the order of their positions; H or OH if unused. Non-standard residues stand in square brackets, D forms with d. Residues, ends and D or L forms follow the SMILES beside them. Groups on a side chain read outwards from the residue. *: point of attachment. γGlu = O=C(O)[C@H](CCC(=O)[*:2])N[*:1]; Palmitoyl = CCCCCCCCCCCCCCCC(=O)*; Ac4c = NC1(C(=O)O)CCC1; Aib = CC(C)(N)C(=O)O

T1: endogenous GLP-1 receptor of a murine insulinoma cell line (murine, UniProt O35659 22-463)
T1 sequence (looked up): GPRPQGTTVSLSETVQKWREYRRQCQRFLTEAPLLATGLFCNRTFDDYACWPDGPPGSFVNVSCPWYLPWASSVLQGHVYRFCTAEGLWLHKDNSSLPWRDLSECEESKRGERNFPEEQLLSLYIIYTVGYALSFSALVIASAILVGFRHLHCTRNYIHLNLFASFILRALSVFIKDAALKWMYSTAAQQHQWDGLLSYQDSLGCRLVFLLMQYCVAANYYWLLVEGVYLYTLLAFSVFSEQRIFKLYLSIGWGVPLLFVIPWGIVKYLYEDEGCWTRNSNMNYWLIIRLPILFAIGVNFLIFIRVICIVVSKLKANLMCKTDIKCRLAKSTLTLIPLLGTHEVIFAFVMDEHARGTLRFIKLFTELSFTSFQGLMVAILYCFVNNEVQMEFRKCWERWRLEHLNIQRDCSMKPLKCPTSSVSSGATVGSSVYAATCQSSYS


Key:
[1] = target: T2, human glucagon receptor (Glucagon-R) (Homo sapiens, UniProt P47871); experiment: Glucagon receptor efficacy assay (cAMP AlphaScreen, CHO cells); assay type: cell-based; conditions: cAMP formation, CHO cells expressing human Glucagon-R; read-out: EC50 hGCGR CHO-K1
T2 construct: expressed in transfected cells
T2 sequence (P47871 26-477): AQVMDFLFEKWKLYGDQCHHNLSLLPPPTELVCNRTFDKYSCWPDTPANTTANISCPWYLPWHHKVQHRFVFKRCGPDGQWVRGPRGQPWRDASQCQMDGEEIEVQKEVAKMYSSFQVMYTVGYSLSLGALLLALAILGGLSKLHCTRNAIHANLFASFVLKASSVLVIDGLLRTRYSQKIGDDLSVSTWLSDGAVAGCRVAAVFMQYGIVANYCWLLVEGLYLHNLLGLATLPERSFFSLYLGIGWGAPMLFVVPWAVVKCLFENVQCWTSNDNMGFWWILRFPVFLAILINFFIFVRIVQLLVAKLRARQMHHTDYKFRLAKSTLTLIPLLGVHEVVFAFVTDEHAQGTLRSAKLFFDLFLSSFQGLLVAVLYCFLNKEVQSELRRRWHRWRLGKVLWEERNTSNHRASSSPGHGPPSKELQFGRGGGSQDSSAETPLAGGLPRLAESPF
Procedure: (§1) The mammalian expression vectors encoding the Glucagon-R or the GLP-1-R were transfected into Chinese hamster ovary (CHO) cells by the Attractene method. Stably expressing clones were obtained by Zeocin selection (250 μg/mL) upon limited dilution of cells resistant to the selection pressure. […] One Glucagon-R expressing clone and one GLP-1-R expressing clone were chosen for compound profiling.
(§2) CHO cells expressing the human Glucagon-R, or human GLP-1-R were seeded 24 hours prior to the assay at 30,000 cells per well in 96-well microtiter plates in culture in 100 μl growth medium. On the day of analysis, growth medium was removed and the cells were washed once with 200 μl of assay buffer (Krebs-Ringer-buffer—KRBH). The buffer was removed and the cells were incubated for 15 min at room temperature in 10 μl KRBH (KRBH+10 mM HEPES, 5 mM NaHCO3, 0.1% (V/V) BSA) with 0.1 mM IBMX in deionized water containing increasing concentrations of test peptides. The reaction was stopped by the addition of lysis buffer (0.1% w/v BSA, 5 mM HEPES, 0.3% v/v Tween-20). After cell lysis for 10 min at room temperature, lysates were transferred to 384-well plates and 10 μl of acceptor/donorbead mixture as contained in the AlphaScreen™ cAMP Functional Assay Kit was added. After one hour of incubation at room temperature in the dark, the cAMP content was determined applying the AlphaScreen™ cAMP Functional Assay Kit from Perkin-Elmer according to manufacturer instructions. […] The GLP-1/glucagon ratio is calculated as defined earlier.

[2] = target: T3, human glucagon-like peptide 1 receptor (GLP-1R) (Homo sapiens, UniProt P43220); experiment: GLP-1 receptor efficacy assay (cAMP AlphaScreen, CHO cells); assay type: cell-based; conditions: for Ratio GLP-1/Glucagon: EC50 [GLP-1R] / EC50 [Glucagon-R], human receptors in CHO-K1; for EC50: cAMP formation, CHO cells expressing human GLP-1-R, read-out: EC50 hGLP-1R CHO-K1
T3 construct: expressed in transfected cells
T3 sequence (P43220 24-463): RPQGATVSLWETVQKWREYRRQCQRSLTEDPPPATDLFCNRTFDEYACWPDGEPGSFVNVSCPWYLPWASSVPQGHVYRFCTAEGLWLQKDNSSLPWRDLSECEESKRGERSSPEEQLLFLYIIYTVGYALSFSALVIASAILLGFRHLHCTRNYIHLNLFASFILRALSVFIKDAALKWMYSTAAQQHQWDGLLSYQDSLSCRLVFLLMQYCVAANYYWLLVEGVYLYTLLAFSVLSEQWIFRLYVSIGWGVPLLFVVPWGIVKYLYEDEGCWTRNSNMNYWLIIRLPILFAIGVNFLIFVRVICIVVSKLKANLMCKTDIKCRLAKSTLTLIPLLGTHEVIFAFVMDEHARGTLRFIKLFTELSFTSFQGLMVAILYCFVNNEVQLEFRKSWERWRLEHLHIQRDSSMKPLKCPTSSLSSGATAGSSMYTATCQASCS
Procedure: as §1, §2

[3] = target: human glucagon receptor (Glucagon-R) (human, UniProt P47871 26-477); experiment: cell-based or functional assay
Sequence of human glucagon receptor (Glucagon-R) (human, UniProt P47871 26-477) (P47871 26-477): as the sequence (P47871 26-477) above

[4] = target: human glucagon-like peptide 1 receptor (GLP-1R) (human, UniProt P43220 24-463); experiment: cell-based or functional assay
[5] = target: T1, endogenous GLP-1 receptor of a murine …; experiment: cell-based or functional assay
[6] = target: endogenous glucagon receptor of primary rat hepatocytes (rat, UniProt P30082 27-485); experiment: cell-based or functional assay
Sequence of endogenous glucagon receptor of primary rat hepatocytes (P30082 27-485): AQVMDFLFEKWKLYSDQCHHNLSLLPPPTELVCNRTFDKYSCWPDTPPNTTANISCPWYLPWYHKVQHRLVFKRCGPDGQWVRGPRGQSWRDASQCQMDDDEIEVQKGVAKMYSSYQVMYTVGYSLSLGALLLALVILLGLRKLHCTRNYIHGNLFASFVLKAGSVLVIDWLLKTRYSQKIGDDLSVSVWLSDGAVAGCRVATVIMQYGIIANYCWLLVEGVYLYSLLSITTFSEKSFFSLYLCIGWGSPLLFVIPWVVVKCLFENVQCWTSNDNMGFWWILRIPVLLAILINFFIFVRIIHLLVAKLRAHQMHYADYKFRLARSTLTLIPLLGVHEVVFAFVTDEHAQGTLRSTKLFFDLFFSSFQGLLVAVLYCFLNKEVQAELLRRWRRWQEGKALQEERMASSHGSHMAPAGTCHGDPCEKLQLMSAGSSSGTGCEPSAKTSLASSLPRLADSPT

| Molecule | EC50 [1] [nM] | Ratio GLP-1/Glucagon [2] | EC50 [2] [nM] | EC50 hGCGR CHO-K1 [nM] (cAMP, AlphaScreen) [3] | EC50 hGLP-1R CHO-K1 [nM] (cAMP, AlphaScreen) [4] | EC50 [nM] (cAMP in murine insulinoma cell line) [5] | EC50 [nM] (inhibition of glycogen synthesis rate in primary rat hepatocytes) [6] |
| --- | --- | --- | --- | --- | --- | --- | --- |
| CCCCCCCCCCCCCCCC(=O)N[C@@H](CCC(=O)NCCCC[C@H](NC(=O)[C@H](CCC(=O)O)NC(=O)[C@H](CC(=O)O)NC(=O)[C@H](CC(C)C)NC(=O)[C@H](Cc1ccc(O)cc1)NC(=O)[C@H](CCCCN)NC(=O)[C@H](CO)NC(=O)[C@H](Cc1ccc(O)cc1)NC(=O)[C@H](CC(=O)O)NC(=O)[C@H](CO)NC(=O)[C@@H](NC(=O)[C@H](Cc1ccccc1)NC(=O)[C@@H](NC(=O)CNC(=O)[C@H](Cc1c[nH]cn1)NC(=O)C1(NC(=O)[C@@H](N)Cc2c[nH]cn2)CCC1)[C@@H](C)O)[C@@H](C)O)C(=O)N[C@@H](C)C(=O)N[C@@H](C)C(=O)N[C@@H](CCCCN)C(=O)N[C@@H](CC(=O)O)C(=O)N[C@@H](Cc1ccccc1)C(=O)N[C@H](C(=O)N[C@@H](CCC(=O)O)C(=O)N[C@@H](Cc1c[nH]c2ccccc12)C(=O)N[C@@H](CC(C)C)C(=O)N[C@@H](CCC(=O)O)C(=O)N[C@@H](CO)C(=O)N[C@@H](C)C(N)=O)[C@@H](C)CC)C(=O)O [Compound 15] | 0.1 |  |  |  |  |  |  |
| CCCCCCCCCCCCCCCC(=O)N[C@@H](CCC(=O)NCCCC[C@H](NC(=O)[C@H](CCC(=O)O)NC(=O)[C@H](CC(=O)O)NC(=O)[C@H](CC(C)C)NC(=O)[C@H](Cc1ccc(O)cc1)NC(=O)[C@H](CCCCN)NC(=O)[C@H](CO)NC(=O)[C@H](Cc1ccc(O)cc1)NC(=O)[C@H](CC(=O)O)NC(=O)[C@H](CO)NC(=O)[C@@H](NC(=O)[C@H](Cc1ccccc1)NC(=O)[C@@H](NC(=O)CNC(=O)[C@H](CCC(N)=O)NC(=O)[C@H](CC)NC(=O)[C@@H](N)Cc1c[nH]cn1)[C@@H](C)O)[C@@H](C)O)C(=O)N[C@@H](C)C(=O)N[C@@H](C)C(=O)N[C@@H](CCCCN)C(=O)N[C@@H](CC(=O)O)C(=O)N[C@@H](Cc1ccccc1)C(=O)N[C@H](C(=O)N[C@@H](CCC(=O)O)C(=O)N[C@@H](Cc1c[nH]c2ccccc12)C(=O)N[C@@H](CC(C)C)C(=O)N[C@@H](CCC(=O)O)C(=O)N[C@@H](CO)C(=O)N[C@@H](C)C(N)=O)[C@@H](C)CC)C(=O)O [Compound 10] | 0.1 | 2.7 | 0.27 |  |  |  |  |
| CCCCCCCCCCCCCCCC(=O)N[C@@H](CCC(=O)NCCCC[C@H](NC(=O)[C@H](CO)NC(=O)[C@H](CC(=O)O)NC(=O)[C@H](CC(C)C)NC(=O)[C@H](Cc1ccc(O)cc1)NC(=O)[C@H](CCCCN)NC(=O)[C@H](CO)NC(=O)[C@H](Cc1ccc(O)cc1)NC(=O)[C@H](CC(=O)O)NC(=O)[C@H](CO)NC(=O)[C@@H](NC(=O)[C@H](Cc1ccccc1)NC(=O)[C@@H](NC(=O)CNC(=O)[C@H](CCC(N)=O)NC(=O)C1(NC(=O)[C@@H](N)Cc2c[nH]cn2)CCC1)[C@@H](C)O)[C@@H](C)O)C(=O)N[C@@H](C)C(=O)N[C@@H](C)C(=O)N[C@@H](Cc1c[nH]cn1)C(=O)N[C@@H](CC(=O)O)C(=O)N[C@@H](Cc1ccccc1)C(=O)N[C@H](C(=O)N[C@@H](CCC(=O)O)C(=O)N[C@@H](Cc1c[nH]c2ccccc12)C(=O)N[C@@H](CC(C)C)C(=O)N[C@@H](CC(C)C)C(=O)N[C@@H](CO)C(=O)N[C@@H](C)C(N)=O)C(C)C)C(=O)O [Compound 4] | 0.12 | 2.59 |  |  |  |  |  |
| CCCCCCCCCCCCCCCC(=O)N[C@@H](CCC(=O)NCCCC[C@H](NC(=O)[C@H](CO)NC(=O)[C@H](CC(=O)O)NC(=O)[C@H](CC(C)C)NC(=O)[C@H](Cc1ccc(O)cc1)NC(=O)[C@H](CCCCN)NC(=O)[C@H](CO)NC(=O)[C@H](Cc1ccc(O)cc1)NC(=O)[C@H](CC(=O)O)NC(=O)[C@H](CO)NC(=O)[C@@H](NC(=O)[C@H](Cc1ccccc1)NC(=O)[C@@H](NC(=O)CNC(=O)[C@H](Cc1c[nH]cn1)NC(=O)[C@H](CO)NC(=O)[C@@H](N)Cc1c[nH]cn1)[C@@H](C)O)[C@@H](C)O)C(=O)N[C@@H](C)C(=O)N[C@@H](C)C(=O)N[C@@H](Cc1c[nH]cn1)C(=O)N[C@@H](CC(=O)O)C(=O)N[C@@H](Cc1ccccc1)C(=O)N[C@H](C(=O)N[C@@H](CCC(=O)O)C(=O)N[C@@H](Cc1c[nH]c2ccccc12)C(=O)N[C@@H](CC(C)C)C(=O)N[C@@H](CC(C)C)C(=O)N[C@@H](CO)C(=O)N[C@@H](C)C(N)=O)C(C)C)C(=O)O [Compound 5] (H-HSHGTFTSDYSKYLDSK([γGlu-Palmitoyl])AAHDFVEWLLSA-NH2) | 0.12 | 2.25 | 0.27 |  |  |  |  |
| H-H[Aib]QGTFTSDYSKYLDEK([γGlu-Palmitoyl])AAKDFIEWLEEE-NH2 (SMILES CCCCCCCCCCCCCCCC(=O)N[C@@H](CCC(=O)NCCCC[C@H](NC(=O)[C@H](CCC(=O)O)NC(=O)[C@H](CC(=O)O)NC(=O)[C@H](CC(C)C)NC(=O)[C@H](Cc1ccc(O)cc1)NC(=O)[C@H](CCCCN)NC(=O)[C@H](CO)NC(=O)[C@H](Cc1ccc(O)cc1)NC(=O)[C@H](CC(=O)O)NC(=O)[C@H](CO)NC(=O)[C@@H](NC(=O)[C@H](Cc1ccccc1)NC(=O)[C@@H](NC(=O)CNC(=O)[C@H](CCC(N)=O)NC(=O)C(C)(C)NC(=O)[C@@H](N)Cc1c[nH]cn1)[C@@H](C)O)[C@@H](C)O)C(=O)N[C@@H](C)C(=O)N[C@@H](C)C(=O)N[C@@H](CCCCN)C(=O)N[C@@H](CC(=O)O)C(=O)N[C@@H](Cc1ccccc1)C(=O)N[C@H](C(=O)N[C@@H](CCC(=O)O)C(=O)N[C@@H](Cc1c[nH]c2ccccc12)C(=O)N[C@@H](CC(C)C)C(=O)N[C@@H](CCC(=O)O)C(=O)N[C@@H](CCC(=O)O)C(=O)N[C@@H](CCC(=O)O)C(N)=O)[C@@H](C)CC)C(=O)O) [Compound 17: H-H-Aib-QGTFTSDYSKYLDE-K(Hexadecanoyl-isoGlu)-AAKDFIEWLEEE-NH2] |  |  |  | 0.08 | 0.27 | 0.21 | 2.26 |
| H-H[Ac4c]QGTFTSDYSKYLDSK([γGlu-Palmitoyl])AAHDFVEWLLSA-NH2 (SMILES CCCCCCCCCCCCCCCC(=O)N[C@@H](CCC(=O)NCCCC[C@H](NC(=O)[C@H](CO)NC(=O)[C@H](CC(=O)O)NC(=O)[C@H](CC(C)C)NC(=O)[C@H](Cc1ccc(O)cc1)NC(=O)[C@H](CCCCN)NC(=O)[C@H](CO)NC(=O)[C@H](Cc1ccc(O)cc1)NC(=O)[C@H](CC(=O)O)NC(=O)[C@H](CO)NC(=O)[C@@H](NC(=O)[C@H](Cc1ccccc1)NC(=O)[C@@H](NC(=O)CNC(=O)[C@H](CCC(N)=O)NC(=O)C1(NC(=O)[C@@H](N)Cc2c[nH]cn2)CCC1)[C@@H](C)O)[C@@H](C)O)C(=O)N[C@@H](C)C(=O)N[C@@H](C)C(=O)N[C@@H](Cc1c[nH]cn1)C(=O)N[C@@H](CC(=O)O)C(=O)N[C@@H](Cc1ccccc1)C(=O)N[C@H](C(=O)N[C@@H](CCC(=O)O)C(=O)N[C@@H](Cc1c[nH]c2ccccc12)C(=O)N[C@@H](CC(C)C)C(=O)N[C@@H](CC(C)C)C(=O)N[C@@H](CO)C(=O)N[C@@H](C)C(N)=O)C(C)C)C(=O)O) [Compound 4: H-H-Ac4c-QGTFTSDYSKYLDS-K(Hexadecanoyl-isoGlu)-AAHDFVEWLLSA-NH2] |  |  |  | 0.12 | 0.31 | 0.32 | 0.37 |
